Values joined by “and” are separate entries in the source; they are usually repeats but may differ in a detail not shown here. Equal values may be shown once.
Experiments:
[1] = system: bleomycin-instilled male Wistar rats; experiment: Picro Sirius Red (PR) staining for collagen in lung, bleomycin-induced pulmonary fibrosis; type: in vivo, rat; conditions: 18 days after bleomycin, individual rats, n = 3-4
Description: (§1) The data was analysed using the program “Sion Image”.

[2] = system: bleomycin-instilled male Wistar rats; experiment: Hydroxyproline assay of lung, bleomycin-induced pulmonary fibrosis; type: in vivo, rat; conditions: 18 days after bleomycin instillation
Description: as §1
Hydroxyproline assay was performed by the method of Christensen et al 1 (2000). Lung tissue was excised, trimmed free of surrounding conducting airways, and homogenized in 2 mls saline. A 1 ml aliquot of lung homogenate was hydrolysed in 6N HCl (0.5 ml of homogenate and 0.5 ml of 12N HCl) at 110° C. for 12 hours; 50 μl aliquots were added to 1 ml of 14% chloramine T, 10% n-propanol, and 0.5M sodium acetate, pH 6.0. After 20 min at 22° C., 1 ml of Ehrlich's solution (1M p-dimethylaminobenzaldehyde in 70% n-propanol and 20% perchloric acid) was added and allowed to incubate at 65° C. for 15 min. Absorbance was measured at 550 nm, and the amount of hydroxyproline was determined against a standard curve generated with the use of known concentrations of reagent-grade hydroxyproline.

[3] = system: bleomycin-instilled male Wistar rats; experiment: Bleomycin-induced pulmonary fibrosis in rats: lung and body weight, histology, collagen deposition; conditions: for collagen deposition in lung: acute lung inflammation; for Body weight / Left lung weight / Ratio (lung weight to body weight): 7-9 days after intra-tracheal bleomycin, PMX53 10 mg/kg p.o. daily
Description: Male Wistar rats, 6 weeks of age, were used. The rats were divided into 5 groups:
Group 1: bleomycin instillation only (n=9)
Group 2: saline instillation only (n=3)
Group 5: Untreated rats maintained in the same environment as the other groups (n=3).
Drug-treated rats were given drug for 3 days before bleomycin administration.
One intra-tracheal instillation of bleomycin at a dose of 0.5 mg/100 g (0.7 U/100 g) in 200 μl of saline was performed on Day 1, as described by Taylor et al., (2002). Rats were anaesthetized by inhalation of 5% or less halothane via a vaporizer. After a local spray of Xylocalne to prevent airway spasm, the rats were intubated and a slow injection of bleomycin or sline control was completed. The rats were then rotated gently for about 1-2 minutes to allow the solution to diffuse evenly into both lungs (Christensen et al 2000). Rats were kept in the fume cupboard until totally recovered, and then monitored for up to 18 days. Body weight, food and water intake, and respiration were monitored daily.
Respiration was elevated as follows: Score 0, normal respiration; Score 1, increased rate of breathing; and Score 2, mouth open respiration. Rats were euthanased before the end of the experimental period, if they consistently lost more than 10% bodyweight for 48 hours, had Score 2 respiration or had Score 1 respiration for 48 hours.
At the end of this period the rats were killed by exsanguination under anaesthesia, so that the lungs were clear of blood. For each rat, the left lung was immediately frozen in liquid nitrogen and stored at −20° C. for quantitative collagen analysis using hydroxyproline assay. The right lung was fully inflated and fixed with 10% formulated formalin by airway gravity fixation at a pressure of 30 cm water for 1 minute. Haematoxylin and eosin (H&E) and Picro Sirius Red (PR) staining for collagen were performed to assess collagen deposition in the lung. For quantitation of collagen stained with PR, polarized light images were converted to grey scale, and the total number of white pixels (specific for collagen) per image was determined as a percentage of the total pixel area. The procedure was applied to a total of four fields in the alveolar area and two fields in the peribronchial area and blood vessels per sample (Wang et al, 2000). The largest lobe of the right lung (from 4 lobes) in each rat was chosen. The data was analysed using the program “Sion Image”.
Data were compiled as the means±SE in the study. Tests of significance were obtained by ANOVA followed by Student-Newman-Keuls post analysis.

[4] = system: streptozotocin-induced diabetes in rats; conditions: streptozotocin-induced diabetes in rats (Miric G, et al., 2001); cited from earlier work
[5] = system: L-NAME-treated male Wistar rats; experiment: L-NAME-induced hypertension/cardiac fibrosis in rats: intake, growth, tail-cuff blood pressure, organ weights; type: in vivo, rat
Description: Male Wistar rats (8 weeks old) were obtained from the Central Animal Breeding House of The University of Queensland.
This agent was administered at a dosage of 1 mg/kg/day orally for 4 days before rats were additionally treated with nitro-L-arginine methyl ester (L-NAME) for 4 weeks, i.e. a total duration of treatment of antagonist of 32 days. L-NAME administration produces hypertension and cardiac remodelling as a result of inhibition of the production of nitric oxide (NO).
L-NAME was administered at a concentration of 400 mg/l in the drinking water for 4 weeks to give a mean daily intake of 18.7±0.4 mg L-NAME (41.4±0.8 mg/kg mean body weight). Body weight and food and water intakes were measured daily.
Systolic blood pressure was measured in selected unanaesthetised rats, using a tail-cuff method.

[6] = system: L-NAME-treated male Wistar rats; experiment: Echocardiographic analysis of cardiac function, L-NAME rats; type: in vivo, rat
Description: After 4 weeks of L-NAME treatment, heart function was determined in vivo by echocardiography and in vitro using the isolated Langendorff heart preparation described below. Collagen deposition was measured by image analysis using laser confocal microscopy of picrosirius red-stained cardiac slices, as described below.
Cardiac function was estimated in vivo using echocardiography, using conventional methods.

[7] = system: L-NAME-treated male Wistar rats; experiment: Isolated Langendorff heart preparation (diastolic stiffness), L-NAME rats; type: in vivo, rat
Description: The Langendorff isolated heart preparation was used to determine the diastolic stiffness of the left ventricles ex vivo. […] To assess myocardial stiffness in isolated Langendorff hearts, stress (σ, dyne/cm2) and tangent elastic modulus (E, dyne/cm2) for the […] equator of the left ventricle were calculated by assuming spherical geometry of the ventricle and considering the […] equatorial region as representative of the remaining myocardium: […] Myocardial diastolic stiffness is calculated as the diastolic stiffness constant (k, dimensionless), the slope of the linear relation between E and σ (Mirsky and […], 1973). To assess contractile function, maximal +dP/dt was calculated at a diastolic pressure of 5 mmHg. […] The negative log EC50 of the increase in either force of contraction in mN or rate of contraction in beats/min was determined from the concentration giving half-maximal responses in individual concentration-response curves. Renal function results were corrected for kidney wet weight measured at the end of the experiment.

[8] = system: L-NAME-treated male Wistar rats; experiment: Collagen distribution and inflammatory cells in heart and kidney sections (picrosirius red image analysis), L-NAME rats; type: in vivo, rat
Description: Collagen deposition was measured by image analysis using laser confocal microscopy of picrosirius red-stained cardiac slices, as described below. […] The stained sections were analyzed with an Image Pro plus analysis program using an Olympus BH2 microscope, with results expressed as a percentage of red area in each screen. At least 4 areas were examine in each heart.

[9] = L-NAME rats, echocardiographic M-mode
[10] = L-NAME rats + PMX53 1 mg/kg/day orally

Question: Which PR staining ([1]; listed as Bleo + PMX53) does the source give for `CC(=O)N[C@@H](Cc1ccccc1)C(=O)N[C@H]1CCCNC(=O)[C@H](CCCNC(=N)N)NC(=O)[C@H](Cc2c[nH]c3ccccc23)NC(=O)[C@@H](CC2CCCCC2)NC(=O)[C@@H]2CCCN2C1=O` [PMX53, AcF-[OPdChaWR]] here?
Answer: 1.43 % of the total pixel area and 0.06 % of the total pixel area and 0.01 % of the total pixel area and 0.77 % of the total pixel area

Question: What about the “hydroxyproline levels in the rat lungs” value [2] of the same molecule?
Answer: significantly reduced

Question: And the “lung histology (patchy lesions), treated versus non-treated” value ([3]; 7-9 days after bleomycin, H&E, n=4 per group)?
Answer: no significant difference

Question: And the “collagen deposition in lung” value ([3]; 7-9 days after bleomycin)?
Answer: no significant difference

Question: And the “toxic lung inflammation induced by bleomycin” value ([3]; acute stage)?
Answer: failure

Question: For `Cc1ccc(=O)n(-c2ccccc2)c1` [pirfenidone, 5-methyl-1-phenyl-2-(1H)-pyridone], which “cardiac fibrosis and increase in cardiac stiffness” value [4] is on record?
Answer: can prevent and partially reverse

Question: For `CC(=O)S[C@@H]1CC2=CC(=O)CC[C@]2(C)[C@H]2CC[C@@]3(C)[C@@H](CC[C@@]34CCC(=O)O4)[C@H]12` [spironolactone], which “cardiac fibrosis and increase in cardiac stiffness” value [4] is on record?
Answer: can prevent and partially reverse

Question: What does the source list for AcF-[OPdChaWR] [PMX53]?
Answer: increase in systolic blood pressure of L-NAME rats ([5]; L-NAME + antagonist versus L-NAME only): 16 mmHg; left ventricular wet weight ([5]; L-NAME rats): increased; blood pressure ([5]; control rats): non-significant increase; systolic blood pressure ([5]; tail-cuff, unanaesthetised rats, day 32, L-NAME rats with or without PMX53 1 mg/kg/day orally): 176±3 mmHg; E/A ratio (early to atrial mitral valve inflow rates) ([6]; L-NAME rats): significantly normalised; cardiac output ([6]; L-NAME rats): significantly normalised; diastolic volume ([6]; L-NAME rats): significantly normalised; left ventricular internal diameter in diastole [6, 9]: normalised; left ventricular wall thickness in diastole [6, 9]: normalised; any parameter measured by echocardiographic analysis ([6]; control rats): did not significantly alter; developed pressure and contractility ([7]; isolated heart): without altering; diastolic stiffness constant ([7]; left ventricle ex vivo): prevented; glomerular collagen concentrations in the kidneys ([8]; L-NAME rats): normalized; collagen deposition restricted to % of L-NAME only, kidney interstitium [8, 10]: 30%; collagen deposition restricted to % of L-NAME only, right ventricle interstitial [8, 10]: 44%; collagen deposition restricted to % of L-NAME only, right ventricle perivascular [8, 10]: 37%; collagen increase as % of the increase observed in rats treated with L-NAME only, left ventricular interstitial [8, 10]: 23%; collagen increase as % of the increase observed in rats treated with L-NAME only, left ventricular perivascular [8, 10]: 43%; inflammatory cell infiltration into left or right ventricles ([8]; following L-NAME treatment): totally prevented; Body weight [3]: 228 + 7.583 g; Left lung weight [3]: 0.974 ± 0.132 g; Ratio (lung weight to body weight) [3]: 4.25 ± 1.07 ×10^−3

Question: For Bleomycin [reference compound], which PR staining [1] is on record?
Answer: 0.01 % of the total pixel area and 0.21 % of the total pixel area and 0.78 % of the total pixel area and 1.73 % of the total pixel area

Question: And the “hydroxyproline levels in the rat lungs” value [2]?
Answer: significantly increased

Question: And the Body weight [3]?
Answer: 226 + 8.083 g

Question: And the Left lung weight [3]?
Answer: 1.004 ± 0.04 g

Question: And the “Ratio (lung weight to body weight)” value [3]?
Answer: 4.47 ± 0.46 ×10^−3

Question: And the lung/body weight ratio ([3]; 18 days after bleomycin instillation)?
Answer: did not show a significant difference

Question: And the “collagen deposition in lung” value ([3]; 7-9 days after bleomycin)?
Answer: significant increase

— patent US7919459B2, “Use of C5a receptor antagonist in the treatment of fibrosis” (Promics Pty Limited, priority 2002, dated 2011)
